Assay type in all cases: biochemical
Holding throughout (settings): In Vitro

The target of assay [1] is PI3K δ (Homo sapiens, UniProt O00329). Kind of assay: PI3K lipid kinase inhibition assay (TLC or HTRF), PI3K δ. Also noted: purchased Upstate. From the text: (§1) Other commercial kits or systems for assaying PI3K activities are available. […] An exemplary system is PI 3-Kinase (human) HTRF™ Assay from Upstate.
On the technique in general: Time-resolved FRET reads energy transfer from a long-lived donor to a nearby acceptor.

In assay [2] the target is T1, PI3K α (Homo sapiens, UniProt P42336).
T1 construct: purchased Upstate
Kind of assay: PI3K lipid kinase inhibition assay (TLC or HTRF), PI3K α.
Source text: as §1

Assay [3] concerns the target T2, PI3K γ (Homo sapiens, UniProt P48736).
T2 construct: purchased Sigma
Kind of assay: PI3K lipid kinase inhibition assay (TLC or HTRF), PI3K γ.
Source text: as §1

The target of assay [4] is T3, PI3K β (Homo sapiens, UniProt P42338).
T3 construct: purchased Upstate
Kind of assay: PI3K lipid kinase inhibition assay (TLC or HTRF), PI3K β.
Source text: as §1

SMILES strings stand for the structures.

Chain of PI3K δ (O00329 whole entry): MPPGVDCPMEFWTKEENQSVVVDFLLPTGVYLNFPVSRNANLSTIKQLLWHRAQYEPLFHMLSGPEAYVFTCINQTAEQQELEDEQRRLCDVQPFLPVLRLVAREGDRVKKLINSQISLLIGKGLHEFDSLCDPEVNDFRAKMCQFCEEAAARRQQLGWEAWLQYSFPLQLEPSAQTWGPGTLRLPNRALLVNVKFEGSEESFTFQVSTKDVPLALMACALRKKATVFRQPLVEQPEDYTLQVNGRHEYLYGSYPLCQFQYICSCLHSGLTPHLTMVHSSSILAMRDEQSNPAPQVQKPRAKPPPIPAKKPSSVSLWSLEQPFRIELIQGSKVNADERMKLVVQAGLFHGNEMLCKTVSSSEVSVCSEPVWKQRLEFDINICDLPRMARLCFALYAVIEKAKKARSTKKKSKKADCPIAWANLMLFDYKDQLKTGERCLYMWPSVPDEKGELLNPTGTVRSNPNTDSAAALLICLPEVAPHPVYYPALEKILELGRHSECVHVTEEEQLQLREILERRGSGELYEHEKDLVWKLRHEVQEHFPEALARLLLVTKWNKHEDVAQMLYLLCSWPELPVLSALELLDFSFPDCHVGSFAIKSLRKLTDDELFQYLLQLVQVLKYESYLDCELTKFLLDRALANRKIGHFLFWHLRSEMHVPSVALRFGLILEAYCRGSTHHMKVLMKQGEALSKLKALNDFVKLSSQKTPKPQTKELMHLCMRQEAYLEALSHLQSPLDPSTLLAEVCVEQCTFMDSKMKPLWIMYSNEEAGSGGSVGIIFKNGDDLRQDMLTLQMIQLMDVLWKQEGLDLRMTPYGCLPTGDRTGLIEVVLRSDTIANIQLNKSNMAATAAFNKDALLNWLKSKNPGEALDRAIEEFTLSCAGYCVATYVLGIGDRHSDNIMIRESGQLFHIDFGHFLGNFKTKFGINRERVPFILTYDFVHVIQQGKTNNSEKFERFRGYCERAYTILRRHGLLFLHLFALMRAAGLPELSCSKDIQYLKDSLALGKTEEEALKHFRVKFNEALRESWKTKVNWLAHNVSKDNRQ
Chain of PI3K δ (P27986 whole entry partner): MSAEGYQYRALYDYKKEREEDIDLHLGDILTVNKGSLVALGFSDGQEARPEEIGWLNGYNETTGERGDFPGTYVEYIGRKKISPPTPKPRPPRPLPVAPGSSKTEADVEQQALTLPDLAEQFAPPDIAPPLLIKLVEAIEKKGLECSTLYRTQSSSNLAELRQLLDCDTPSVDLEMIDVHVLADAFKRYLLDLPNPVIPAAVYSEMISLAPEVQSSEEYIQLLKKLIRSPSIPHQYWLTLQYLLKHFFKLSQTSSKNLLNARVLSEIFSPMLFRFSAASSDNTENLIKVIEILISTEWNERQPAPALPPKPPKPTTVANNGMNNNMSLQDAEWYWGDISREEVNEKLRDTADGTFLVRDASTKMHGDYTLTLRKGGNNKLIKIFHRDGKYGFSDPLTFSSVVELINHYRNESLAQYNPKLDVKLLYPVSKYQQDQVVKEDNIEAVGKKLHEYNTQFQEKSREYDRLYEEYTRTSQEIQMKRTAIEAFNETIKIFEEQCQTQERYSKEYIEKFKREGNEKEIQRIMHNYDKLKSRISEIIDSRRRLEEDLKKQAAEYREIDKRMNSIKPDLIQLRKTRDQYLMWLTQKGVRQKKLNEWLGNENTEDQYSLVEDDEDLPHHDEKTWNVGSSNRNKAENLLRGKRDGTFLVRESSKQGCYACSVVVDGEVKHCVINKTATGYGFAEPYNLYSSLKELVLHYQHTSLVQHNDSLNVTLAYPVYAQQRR
T2 sequence (P48736 whole entry): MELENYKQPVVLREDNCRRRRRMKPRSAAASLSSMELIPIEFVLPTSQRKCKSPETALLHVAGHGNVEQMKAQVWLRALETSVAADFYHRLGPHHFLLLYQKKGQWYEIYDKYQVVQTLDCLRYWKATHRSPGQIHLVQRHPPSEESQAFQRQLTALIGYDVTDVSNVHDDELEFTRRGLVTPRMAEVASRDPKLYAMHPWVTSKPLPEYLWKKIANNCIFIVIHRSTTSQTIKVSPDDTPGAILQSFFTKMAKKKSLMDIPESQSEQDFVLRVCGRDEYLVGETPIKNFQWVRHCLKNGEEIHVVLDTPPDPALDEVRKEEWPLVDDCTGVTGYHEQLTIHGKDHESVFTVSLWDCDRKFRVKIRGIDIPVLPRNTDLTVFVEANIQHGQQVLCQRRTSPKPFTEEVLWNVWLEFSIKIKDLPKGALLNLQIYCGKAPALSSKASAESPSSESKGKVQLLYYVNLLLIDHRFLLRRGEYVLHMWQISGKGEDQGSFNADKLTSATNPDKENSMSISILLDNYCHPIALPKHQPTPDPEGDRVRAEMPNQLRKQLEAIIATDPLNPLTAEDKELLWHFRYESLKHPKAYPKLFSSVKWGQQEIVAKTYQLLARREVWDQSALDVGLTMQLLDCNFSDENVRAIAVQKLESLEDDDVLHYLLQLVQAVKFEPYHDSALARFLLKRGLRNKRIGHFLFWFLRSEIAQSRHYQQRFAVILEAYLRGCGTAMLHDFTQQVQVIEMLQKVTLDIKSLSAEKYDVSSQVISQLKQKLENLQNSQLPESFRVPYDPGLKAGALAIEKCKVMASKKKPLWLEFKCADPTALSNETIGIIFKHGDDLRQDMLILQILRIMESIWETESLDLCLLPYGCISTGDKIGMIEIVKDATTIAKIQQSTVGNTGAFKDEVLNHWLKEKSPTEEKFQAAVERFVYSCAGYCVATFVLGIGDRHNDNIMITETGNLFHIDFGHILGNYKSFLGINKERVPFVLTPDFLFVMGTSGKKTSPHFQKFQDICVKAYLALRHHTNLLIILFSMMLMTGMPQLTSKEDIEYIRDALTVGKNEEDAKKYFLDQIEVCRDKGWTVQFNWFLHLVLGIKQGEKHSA
T3 sequence (P42338 whole entry): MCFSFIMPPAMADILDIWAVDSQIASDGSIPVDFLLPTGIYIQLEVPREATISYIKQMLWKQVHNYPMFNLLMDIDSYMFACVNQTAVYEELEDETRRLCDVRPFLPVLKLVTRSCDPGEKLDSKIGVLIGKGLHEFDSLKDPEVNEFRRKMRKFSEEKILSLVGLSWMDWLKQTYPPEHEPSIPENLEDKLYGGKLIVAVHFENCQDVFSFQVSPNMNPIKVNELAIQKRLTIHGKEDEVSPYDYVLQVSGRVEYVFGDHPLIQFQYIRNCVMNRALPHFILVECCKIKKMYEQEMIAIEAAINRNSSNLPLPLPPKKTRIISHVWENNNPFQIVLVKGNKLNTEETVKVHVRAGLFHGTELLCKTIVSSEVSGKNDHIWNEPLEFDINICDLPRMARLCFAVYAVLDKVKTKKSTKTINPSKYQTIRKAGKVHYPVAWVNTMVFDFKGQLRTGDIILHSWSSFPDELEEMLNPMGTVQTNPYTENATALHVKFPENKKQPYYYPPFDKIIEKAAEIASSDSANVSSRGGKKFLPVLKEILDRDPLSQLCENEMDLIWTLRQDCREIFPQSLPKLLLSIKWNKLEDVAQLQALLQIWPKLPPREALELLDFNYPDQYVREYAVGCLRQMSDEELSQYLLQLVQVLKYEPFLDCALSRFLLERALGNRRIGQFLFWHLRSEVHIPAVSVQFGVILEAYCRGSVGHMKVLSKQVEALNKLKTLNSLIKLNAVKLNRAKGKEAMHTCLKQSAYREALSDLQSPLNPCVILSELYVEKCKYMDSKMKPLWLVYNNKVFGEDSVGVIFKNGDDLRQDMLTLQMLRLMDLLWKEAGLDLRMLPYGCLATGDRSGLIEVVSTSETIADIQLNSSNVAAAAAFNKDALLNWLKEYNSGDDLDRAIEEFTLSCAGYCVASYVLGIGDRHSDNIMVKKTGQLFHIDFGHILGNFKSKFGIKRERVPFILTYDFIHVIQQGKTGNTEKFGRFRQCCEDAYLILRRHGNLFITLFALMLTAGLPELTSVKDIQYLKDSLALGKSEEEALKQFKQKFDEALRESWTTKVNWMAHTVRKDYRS
T3 sequence (P27986 whole entry partner): as the sequence (P27986 whole entry partner) above
T1 sequence (P42336 whole entry): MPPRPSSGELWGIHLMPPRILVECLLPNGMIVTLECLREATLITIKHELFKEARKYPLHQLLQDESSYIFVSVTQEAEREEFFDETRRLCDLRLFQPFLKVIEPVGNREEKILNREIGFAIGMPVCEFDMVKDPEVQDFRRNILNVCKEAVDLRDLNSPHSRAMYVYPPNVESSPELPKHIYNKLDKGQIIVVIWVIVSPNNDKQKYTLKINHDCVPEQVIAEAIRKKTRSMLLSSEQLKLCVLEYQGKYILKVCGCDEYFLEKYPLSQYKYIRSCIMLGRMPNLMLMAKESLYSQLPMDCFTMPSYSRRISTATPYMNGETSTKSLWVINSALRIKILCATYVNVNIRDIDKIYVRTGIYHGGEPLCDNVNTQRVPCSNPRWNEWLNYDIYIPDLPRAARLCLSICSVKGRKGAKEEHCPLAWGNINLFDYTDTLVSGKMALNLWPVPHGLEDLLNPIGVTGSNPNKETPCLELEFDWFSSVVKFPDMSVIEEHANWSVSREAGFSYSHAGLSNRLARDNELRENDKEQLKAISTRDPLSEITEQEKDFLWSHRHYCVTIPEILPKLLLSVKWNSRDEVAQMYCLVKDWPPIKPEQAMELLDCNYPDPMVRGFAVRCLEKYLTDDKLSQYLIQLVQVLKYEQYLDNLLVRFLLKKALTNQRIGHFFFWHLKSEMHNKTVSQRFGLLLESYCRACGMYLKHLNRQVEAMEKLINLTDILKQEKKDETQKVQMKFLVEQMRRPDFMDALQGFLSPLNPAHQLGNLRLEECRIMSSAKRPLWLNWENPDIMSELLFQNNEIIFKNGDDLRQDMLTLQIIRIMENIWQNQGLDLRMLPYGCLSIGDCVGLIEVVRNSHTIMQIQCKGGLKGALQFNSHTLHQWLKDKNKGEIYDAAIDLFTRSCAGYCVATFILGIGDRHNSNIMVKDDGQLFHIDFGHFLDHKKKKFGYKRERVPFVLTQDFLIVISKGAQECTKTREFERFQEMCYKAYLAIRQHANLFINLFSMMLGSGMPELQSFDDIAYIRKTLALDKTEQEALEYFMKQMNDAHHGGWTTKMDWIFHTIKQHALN
T1 sequence (P27986 whole entry partner): as the sequence (P27986 whole entry partner) above

As usually defined, the IC50 is the midpoint of a concentration-inhibition curve. Lower therefore signals higher potency. In assay [1], `Cc1cccc2cc(Cn3nc(-c4ccc(Cl)c(O)c4)c4c(N)ncnc43)n(C(C)C)c(=O)c12` [Compound 123] returned an IC50 of less than 100 nM.

Consider `Cc1cccc2cc(Cn3nc(-c4ccc5nc(N)oc5c4)c4c(N)ncnc43)n(-c3ccccc3)c(=O)c12` [Compound 235], for which the IC50 in assay [2] was less than 10000 nM; in assay [3], less than 100 nM; in assay [4], less than 10000 nM.

Regarding `Cc1ccccc1-n1c(Cn2nc(-c3cc(O)cc(F)c3)c3c(N)ncnc32)cc2cccc(C)c2c1=O` [Compound 113], in assay [4], the IC50 was less than 10000 nM.

With `Cc1ccccc1-n1c(Cn2cnc3c(N)ncnc32)cc2cccc(C)c2c1=O` [Compound 5], the IC50 was less than 10000 nM in assay [1] and greater than 10000 nM in assay [3].

`Cc1ccccc1-n1c(Cn2nc(-c3cccc(O)c3)c3c(N)nccc32)cc2cccc(C)c2c1=O` [Compound 119]: in assay [1], the IC50 is less than 100 nM.

The values above are taken from patent US20160113932A1, “TREATMENT OF CANCERS USING PI3 KINASE ISOFORM MODULATORS” (INFINITY PHARMACEUTICALS, INC., priority 2013, published 2016).
